Here are results for six molecules from publication PMC9965125, “New NSAID Conjugates as Potent and Selective COX-2 Inhibitors: Synthesis, Molecular Modeling and Biological Investigation” (Molecules, 2023).

Test [1] relates to acetic acid-induced abdominal writhing. In words: acetic acid-induced abdominal writhing assay (peripheral analgesic). The test is classed as in vivo, mice. Conditions: for % Inhibition/Protection / Writing Reflex ± SE: 10 mg/kg indomethacin mol equivalent i.p.; for Potency: % inhibition/protection compared to indomethacin; for Writing Reflex ± SE: number of writhing counted for 30 min. As to the method: Peripheral analgesic testing
Peripheral analgesic activity was measured by the standard acetic acid-induced writhing […]
One hour after intraperitoneally (i,p.) administration of 10 mg kg−1 (mice body weight) […]
distilled/sterile water by the aid of two drops of Tween 80, each mouse was injected with 0.1 ml of 1% acetic acid solution i.p. The control group animals were given sterile/distilled water only with few drops of Tween 80. Starting 5 min after the acetic acid injection, the number of muscular contractions in each mouse was counted for 30 min. A significant reduction in the number of writhing by any test compound as compared to control animals was considered as a positive analgesic response. Percentage protection was calculated according to equ. (3), where n stands for the average number of writhing in the control group and n' is the average number of writhing in the treated group. The % potency was calculated by equ. (4) (Table 2).
% Inhibition/protection = n−n′ x100 … . (3)

The test system of another test is hot plate latency. In words: hot plate assay (central analgesic). The test is classed as in vivo, mice. As to conditions: for % Protection / Latency Period ± SE: 10 mg/kg indomethacin mol equivalent i.p.; for Latency Period ± SE: cutoff 15 sec; for Potency: at 120 min compared to indomethacin. The protocol:
The % potency was calculated by equ. (4) (Table 2). […]
% Potency = % protection of the tested compound x 100 ……. (4) […]
Central analgesic (hot plate) testing
The standard hot plate technique was undertaken by in vivo standard hot plate test [ 1,2]. […]
by placing them on a hot plate maintained at 55 ± 1 °C, 30 min. […]
suspended in sterile/distilled water by the ai d of two drops of Tween 80, and recording the reaction time in seconds for forepaw licking or jumping. The control group animals were given sterile/distilled water only with few drops of Tween 80. The maximum cutoff time was chosen as 15 sec. to prevent tissue damage. Response latencies were measured 30, 60, 90 and 120 min. after the application. The % protection was calculated by equ. ( 5) where, T1, T0 are the latency time mean of the tested compound and control group, respectively (Table 3).

Test [2] has as its system carrageenan induced paw edema. Briefly: carrageenan-induced rat paw edema. As to conditions: for anti-inflammatory efficacy (in words): carrageenan-induced rat paw edema; for % Inhibition of Edema ± Standard Error / Mean Edema Thickness: 10 mg/kg indomethacin mol equivalent i.p.; for Mean Edema Thickness: ± standard error. Format: in vivo. As to the method:
Anti-inflammatory activity screening
The anti-inflammatory activity of the tested compounds was determined in-vivo by the acute carrageenan induced paw edema standard method in rats. Adult Wister rats of either sex (pregnant female animals were excluded) weighing 120–150 g were divided into 19 groups of 6 animals each. The tested compounds dissolved in DMSO, at a dose of 10 mg kg-1 (rat body […]
inflammation. The control group was given DMSO only. Paw edema was induced by subcutaneous injection of freshly prepared 1% solution of carrageenan in saline (0.9%, 0.1 ml per rat) into subplantar tissue of the right hind paw of rats. The thickness of the paw was measured (in mm) after successive time intervals (1, 2, 3, 4 and 24 h) and compared with the initial hind paw thickness of each rat for determining the edema thickness. Data were collected, checked, revised and analyzed (SPSS 16). Quantitative variables from normal distribution were expressed as means ± SE “standard error”. The anti-inflammatory activity was expressed as percentage inhibition of edema thickness in treated animals in comparison with the control group according to eqn. (1) […]
% Inhibition of edema= Vc-Vt x 100 … .. (1)
Where, Vc and Vt are the means of edema paw thickness for the control and tested compound treated animal groups, respectively.
The potency of the tested compounds was expressed as % inhibition of edema thickness […]
% Potency = % inhibition of edema for the tested compound treated group x 100 … . (2)

Values joined by “and” are separate entries in the source; they are usually repeats but may differ in a detail not shown here. Equal entries are not always repeated.

With `COc1ccc2c(c1)c(CC(=O)OCc1cn(-c3ccc(Cl)cc3)nn1)c(C)n2C(=O)c1ccc(Cl)cc1` [Compound 8b, (1-(4-Chlorophenyl)-1H-1,2,3-triazol-4-yl)methyl 2-(1-(4-chlorobenzoyl)-5-methoxy-2-methyl-1H-indol-3-yl)acetate], the “% Inhibition/Protection” value in test [1] was determined as 46.3%. The Potency in test [1] is recorded as 64.5%; with hot plate latency, 17.2. Also, in test [1], the “Writing Reflex ± SE” value came to 21.5 ± 1.5. Besides, the “% Protection” value amounted to 2.4% in the test with hot plate latency (after 30 min), 14.3% in the test on hot plate latency (after 60 min), 11.2% with hot plate latency (after 90 min) and 9.7% in the test with hot plate latency (after 120 min). Further, the “Latency Period ± SE” value with hot plate latency (after 30 min) was found to be 6.84 ± 1.4 s; with hot plate latency (after 60 min), 8.31 ± 1.9 s; in the test on hot plate latency (after 90 min), 9.91 ± 1.7 s; in the test on hot plate latency (after 120 min), 9.88 ± 2.0 s. In addition, in test [2], the “anti-inflammatory efficacy (in words)” value was “no anti-inflammatory efficacy”.

For the molecule `COc1ccc2c(c1)c(CC(=O)OCc1cn(-c3ccccc3Cl)nn1)c(C)n2C(=O)c1ccc(Cl)cc1` [Compound 8a, (1-(2-Chlorophenyl)-1H-1,2,3-triazol-4-yl)methyl 2-(1-(4-chlorobenzoyl)-5-methoxy-2-methyl-1H-indol-3-yl)acetate], the “% Inhibition/Protection” value in test [1] is 49.3%. Also, the Potency in test [1] was found to be 68.7%; in the test with hot plate latency it was 90.8. Further, the “Writing Reflex ± SE” value in test [1] amounted to 20.3 ± 1.8. The “% Protection” value is on record as 82.5% with hot plate latency (after 30 min), 85.8% in the test on hot plate latency (after 60 min), 55.4% with hot plate latency (after 90 min) and 51.3% in the test on hot plate latency (after 120 min). Besides, the “Latency Period ± SE” value worked out at 12.19 ± 1.9 s in the test on hot plate latency (after 30 min), 13.51 ± 1.7 s with hot plate latency (after 60 min), 13.85 ± 1.4 s in the test on hot plate latency (after 90 min) and 13.63 ± 1.3 s in the test on hot plate latency (after 120 min). The “% Inhibition of Edema ± Standard Error” value in test [2] (1 h) is 0.00 ± 1.5%; in test [2] (2 h), 44.9 ± 1.7%; in test [2] (3 h, 10 mg/kg) it was 32.5% and 32.5 ± 1.5%; in test [2] (4 h), 26.9 ± 1.1%; in test [2] (24 h, 10 mg/kg), 33.3% and 33.3 ± 2.4%. Besides, the “Mean Edema Thickness” value in test [2] (1 h) stood at 0.863 ± 0.07 mm; in test [2] (2 h) it was 0.393 ± 0.08 mm; in test [2] (3 h), 0.488 ± 0.07 mm; in test [2] (4 h), 0.521 ± 0.03 mm; in test [2] (24 h) it was 0.614 ± 0.09 mm. Further, the “% Potency” value in test [2] (% inhibition of edema thickness relative to indomethacin at 3 h) is listed as 40.1%.

As to `COc1ccc(-n2cc(COC(=O)Cc3c(C)n(C(=O)c4ccc(Cl)cc4)c4ccc(OC)cc34)nn2)cc1` [Compound 8f, (1-(4-Methoxyphenyl)-1H-1,2,3-triazol-4-yl)methyl 2-(1-(4-chlorobenzoyl)-5-methoxy-2-methyl-1H-indol-3-yl)acetate], the “% Inhibition/Protection” value in test [1] is 66.8%. Further, the results for the Potency (in test [1]; in the test on hot plate latency) were 93.0% and 117.7, respectively. Also, the “Writing Reflex ± SE” value in test [1] was found to be 13.3 ± 1.9. The “% Protection” value in the test with hot plate latency (after 30 min) was 66.3%; in the test on hot plate latency (after 60 min), 92.4%; in the test on hot plate latency (after 90 min) it was 68.4%; with hot plate latency (after 120 min), 66.5%. Further, the “Latency Period ± SE” value in the test with hot plate latency (after 30 min) worked out at 11.11 ± 1.6 s; in the test with hot plate latency (after 60 min), 13.99 ± 1.9 s; in the test on hot plate latency (after 90 min) it was 15.00 ± 2.5 s; in the test on hot plate latency (after 120 min) it was 15.00 ± 2.6 s. Further, in test [2], the “anti-inflammatory efficacy (in words)” value was “no anti-inflammatory efficacy”.

Take `COc1ccc(-n2cc(COC(=O)C(C)c3ccc(CC(C)C)cc3)nn2)cc1` (stereo not drawn) [Compound 5f, (1-(4-Methoxyphenyl)-1H-1,2,3-triazol-4-yl)methyl 2-(4-isobutylphenyl)propanoate]: the “% Inhibition/Protection” value in test [1] worked out at 80.0%. The Potency was found to be 111.4% in test [1] and 0.4 in the test on hot plate latency. Besides, the “Writing Reflex ± SE” value in test [1] is 8.0 ± 1.4. Besides, the “% Protection” value with hot plate latency (after 30 min) was determined as 90.1%; with hot plate latency (after 60 min) it was 56.8%; in the test with hot plate latency (after 90 min), 19.0%; with hot plate latency (after 120 min) it was 0.2%. In addition, the “Latency Period ± SE” value in the test with hot plate latency (after 30 min) is 12.7 ± 0.9 s; with hot plate latency (after 60 min) it was 11.40 ± 1.5 s; with hot plate latency (after 90 min), 10.60 ± 1.9 s; with hot plate latency (after 120 min), 9.03 ± 1.6 s. Further, the figures for the “% Inhibition of Edema ± Standard Error” value in test [2] (4 h) and in test [2] (24 h) were 1.8 ± 0.7% and 2.5 ± 0.9%, respectively.

With `COc1ccc2c(c1)c(CC(=O)OCc1cn(-c3ccc(C)cc3)nn1)c(C)n2C(=O)c1ccc(Cl)cc1` [Compound 8d, (1-(p-Tolyl)-1H-1,2,3-triazol-4-yl)methyl 2-(1-(4-chlorobenzoyl)-5-methoxy-2-methyl-1H-indol-3-yl)acetate], the “% Inhibition/Protection” value in test [1] is listed as 62.5%. Further, the Potency in test [1] is on record as 87.0%; with hot plate latency, 86.0. In addition, the “Writing Reflex ± SE” value in test [1] was found to be 15.0 ± 1.6. Further, the “% Protection” value with hot plate latency (after 30 min) is listed as 97.8%; in the test with hot plate latency (after 60 min), 74.0%; in the test on hot plate latency (after 90 min), 50.1%; in the test on hot plate latency (after 120 min), 48.6%. For the same molecule, the “Latency Period ± SE” value turned out to be 13.21 ± 2.5 s in the test on hot plate latency (after 30 min), 12.65 ± 2.0 s in the test with hot plate latency (after 60 min), 13.37 ± 1.6 s in the test with hot plate latency (after 90 min) and 13.39 ± 1.2 s with hot plate latency (after 120 min). In addition, the “% Inhibition of Edema ± Standard Error” value in test [2] (1 h) was 0.00 ± 0.8%; in test [2] (3 h), 0.00 ± 0.5%; in test [2] (4 h), 0.00 ± 0.6%; in test [2] (24 h), 0.00 ± 0.4%.

Take `COc1ccc2c(c1)c(CC(=O)OCc1cn(-c3ccc([N+](=O)[O-])cc3)nn1)c(C)n2C(=O)c1ccc(Cl)cc1` [Compound 8g, (1-(4-Nitrophenyl)-1H-1,2,3-triazol-4-yl)methyl 2-(1-(4-chlorobenzoyl)-5-methoxy-2-methyl-1H-indol-3-yl)acetate]: the “% Inhibition/Protection” value in test [1] is recorded as 96.3%. The Potency in test [1] is 134.1%; with hot plate latency it was 4.8. In addition, in test [1], the “Writing Reflex ± SE” value is 1.5 ± 0.4. The “% Protection” value with hot plate latency (after 30 min) turned out to be 56.6%; in the test on hot plate latency (after 60 min) it was 45.4%; in the test with hot plate latency (after 90 min), 41.2%; with hot plate latency (after 120 min), 2.7%. Further, the “Latency Period ± SE” value with hot plate latency (after 30 min) stood at 10.46 ± 2.4 s; with hot plate latency (after 60 min) it was 10.57 ± 2.7 s; in the test on hot plate latency (after 90 min) it was 12.58 ± 2.0 s; with hot plate latency (after 120 min) it was 9.25 ± 2.3 s. Also, the “% Inhibition of Edema ± Standard Error” value in test [2] (1 h) is on record as 20.0 ± 0.7%; in test [2] (24 h), 0.00 ± 1.2%.
